How the values were obtained:
Format in all cases: functional, cell-based
[1] = system: T47D; assay: Inhibition of [3H]spermine transport by the compound was evaluated in T-47D human breast cancer cells
[2] = system: T47D; assay: Inhibition of [3H]putrescine transport by the compound was evaluated in T-47D human breast cancer cells
[3] = system: ZR-75-1; assay: Inhibition of [3H]spermine transport by the compound was evaluated in ZR-75-1 human breast cancer cells
[4] = system: T47D; assay: Inhibition of [3H]spermidine transport by the compound was evaluated in T-47D human breast cancer cells

SMILES | Ki [1] [nM] | Ki [2] [nM] | Ki [3] [nM] | Ki [4] [nM]
NCCCNCCCC(NCCCN)C(=O)NCCSSCCNC(=O)C(CCCNCCCN)NCCCN (stereo not drawn) | 15900 | 3100 | 4000 | 12600
NCCCN(CCCN)CCCCN(CCCN)CCCN | 6200 | 520 | 560 | 2400
NCCCCN(C/C=C/CN(CCCN)CCCCN)CCCN | 1500 | 100 | – | 1800
NCCCCN(CCCN)Cc1ccc(CN(CCCN)CCCCN)cc1 | 2900 | 280 | 240 | 2000
NCCCN(CCCN)Cc1ccc(CN(CCCN)CCCN)cc1 | 1500 | 160 | 700 | 1500
NCCCN(CC#CCN(CCCN)CCCN)CCCN | 12800 | 2600 | – | 25600
NCCCCN(CCCN)CCCCN(CCCN)CCCCN | 4300 | 720 | – | 4900
NCCCN(CCCN)C(=O)CCC(=O)N(CCCN)CCCN | – | – | 1700 | –
NCCCCN [PUTRESCINE] | – | 7400 | – | –
NCCCCN(CC#CCN(CCCN)CCCCN)CCCN | 27700 | 1900 | – | 16900
NCCCNCCCCNCCCN [SPERMINE] | 2700 | 650 | 200 | 920
NCCCN(C/C=C/CN(CCCN)CCCN)CCCN | 1600 | 270 | – | 2000
NCCCCNCCCN [SPERMIDINE] | – | – | – | 4400

Reference: ChEMBL document CHEMBL1132126, “Synthesis of spermidine and norspermidine dimers as high affinity polyamine transport inhibitors” (Bioorg Med Chem Lett, 1999)
